The values below come from patent publication US20230108906A1, “SUBSTITUTED BICYCLIC AND TRICYCLIC UREAS AND AMIDES, ANALOGUES THEREOF, AND METHODS USING SAME” (Arbutus Biopharma Corporation, priority 2019, published 2023).

Usually EC50 stands for the midpoint of the concentration-response curve.

For one test, the system named is HBV rcDNA in HepDE19 cells. Nature of the test: HepDE19 assay with bDNA quantitation of HBV rcDNA. Format: cell-based, hepatitis B virus (HBV). Conditions: Hepatitis B virus, HepDE19, 168 h, inhibition of rcDNA formation in HepDE19 cells (HepG2 derived), Tet-free medium, 7 day incubation, Quantigene 2.0 bDNA readout, top concentration 25 μM; read-out: DE-19bDNA EC50. The gist of the method:
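Cytotoxicity run on replicate plates (5,000 cells/well, 4 days, ATP luminescence, CC50), while antiviral plates (50,000 cells/well) received compound for 7 days after tetracycline withdrawal to induce HBV replication. Top dose 25 μM, 8 points, 0.5% DMSO; rcDNA by branched-DNA assay, % inhibition fitted (4-parameter) for EC50 and EC90.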
For `CN(C(=O)Nc1ccc(F)c(Cl)c1)C1COCc2[nH]c(=O)c3ccccc3c21` (racemic) [Compound 18, 3-(3-Chloro-4-fluorophenyl)-1-methyl-1-(6-oxo-1,4,5,6-tetrahydro-2H-pyrano[3,4-c]isoquinolin-1-yl)urea], the EC50 was 30 nM.

As for `CN(C(=O)Nc1ccc(F)c(Cl)c1)C1CCCc2c1c1ccccc1c(=O)n2C` (stereo not drawn) [Compound 31, 3-(3-Chloro-4-fluorophenyl)-1-methyl-1-(5-methyl-6-oxo-1,2,3,4,5,6-hexahydrophenanthridin-1-yl)urea], the EC50 was determined as 260 nM. Same read-out and setting: for `COc1nc2c(c3cc(F)c(F)cc13)[C@H](N(C)C(=O)Nc1ccc(F)c(Cl)c1)COC2` [Compound 244, (S)-3-(3-Chloro-4-fluorophenyl)-1-(8,9-difluoro-6-methoxy-1,4-dihydro-2H-pyrano[3,4-c]isoquinolin-1-yl)-1-methylurea] the value was 80 nM; for `CN(C(=O)Nc1ccc(F)c(Cl)c1)C1CCc2[nH]c(=O)c3ccccc3c21` (stereo not drawn) [Compound 12, 3-(3-Chloro-4-fluorophenyl)-1-methyl-1-(5-oxo-2,3,4,5-tetrahydro-1H-cyclopenta[c]isoquinolin-1-yl)urea], 90 nM. The same measure, in the same setting: for `CN(C(=O)Nc1ccc(F)c(C#N)c1)C1COCc2[nH]c(=O)c3ccc(F)cc3c21` (stereo not drawn) [Compound 77, 3-(3-Cyano-4-fluorophenyl)-1-(9-fluoro-6-oxo-1,4,5,6-tetrahydro-2H-pyrano[3,4-c]isoquinolin-1-yl)-1-methylurea] the value was 50 nM. Same read-out and setting: for `CCN(C(=O)Nc1ccc(F)c(Cl)c1)C1COCc2[nH]c(=O)c3cc(C#N)ccc3c21` (stereo not drawn) [Compound 90, 3-(3-Chloro-4-fluorophenyl)-1-(8-cyano-6-oxo-1,4,5,6-tetrahydro-2H-pyrano[3,4-c]isoquinolin-1-yl)-1-ethylurea] the value was 360 nM; for `CN(C(=O)Nc1ccc(Cl)c(Cl)c1)[C@@H]1COCc2[nH]c(=O)c3cc(F)c(F)cc3c21` [Compound 143, (S)-3-(3,4-Dichlorophenyl)-1-(8,9-difluoro-6-oxo-1,4,5,6-tetrahydro-2H-pyrano[3,4-c]isoquinolin-1-yl)-1-methylurea], 20 nM; for `CN(C(=O)Nc1ccc(F)c(C(F)F)c1)[C@@H]1COCc2c1c1cc(F)c(F)cc1c(=O)n2CCO` [Compound 251, (S)-1-(8,9-Difluoro-5-(2-hydroxyethyl)-6-oxo-1,4,5,6-tetrahydro-2H-pyrano[3,4-c]isoquinolin-1-yl)-3-(3-(difluoromethyl)-4-fluorophenyl)-1-methylurea], 30 nM. `CN(C(=O)Nc1ccc(F)c(Cl)c1)C1CS(=O)(=O)Cc2[nH]c(=O)c3cc(F)ccc3c21` (single isomer, unassigned) [Compound 197, 3-(3-Chloro-4-fluorophenyl)-1-(8-fluoro-3,3-dioxido-6-oxo-1,4,5,6-tetrahydro-2H-thiopyrano[3,4-c]isoquinolin-1-yl)-1-methylurea]: the EC50 is 2300 nM. The same measure, in the same setting: for `Cc1cc(NC(=O)N(C)C2COCc3[nH]c(=O)c4cc(F)ccc4c32)ccc1F` (stereo not drawn) [Compound 57, 3-(4-Fluoro-3-methylphenyl)-1-(8-fluoro-6-oxo-1,4,5,6-tetrahydro-2H-pyrano[3,4-c]isoquinolin-1-yl)-1-methylurea] the value was 10 nM; for `CN(C(=O)Nc1ccc(F)c(Cl)c1)[C@@H]1COCc2[nH]c(=O)c3cc(F)ccc3c21` (single isomer, unassigned) [Compound 41], 10 nM. As to `CN(C(=O)Nc1ccc(F)c(Cl)c1)C1COCc2[nH]c(=O)c3c(F)c(F)ccc3c21` (stereo not drawn) [Compound 35, 3-(3-Chloro-4-fluorophenyl)-1-(7,8-difluoro-6-oxo-1,4,5,6-tetrahydro-2H-pyrano[3,4-c]isoquinolin-1-yl)-1-methylurea], the EC50 stood at 190 nM. `CCN(C(=O)Nc1ccc(F)c(Cl)c1)C1COCc2[nH]c(=O)c3cc(F)c(F)cc3c21` (racemic) [Compound 45, 3-(3-Chloro-4-fluorophenyl)-1-(8,9-difluoro-6-oxo-1,4,5,6-tetrahydro-2H-pyrano[3,4-c]isoquinolin-1-yl)-1-ethylurea]: the EC50 turned out to be 10 nM.

In the case of `CN(C(=O)Nc1ccc(F)c(Cl)c1)C1COCc2[nH]c(=O)c3cc(F)ccc3c21` (racemic) [Compound 23, 3-(3-Chloro-4-fluorophenyl)-1-(8-fluoro-6-oxo-1,4,5,6-tetrahydro-2H-pyrano[3,4-c]isoquinolin-1-yl)-1-methylurea], the EC50 was found to be 20 nM.

Still in this test, the particulars now being: inhibition of rcDNA formation in HepDE19 cells (HepG2 derived), Tet-free medium, 7 day incubation, Quantigene 2.0 bDNA readout, top concentration 25 μM; read-out: DE-19bDNA EC50.
With `CN(C(=O)Nc1ccc(F)c(C(F)F)c1)C1COCc2nc(NCCO)c3cc(F)c(F)cc3c21` (single isomer, unassigned) [Compound 237, 1-(8,9-Difluoro-6-((2-hydroxyethyl)amino)-1,4-dihydro-2H-pyrano[3,4-c]isoquinolin-1-yl)-3-(3-(difluoromethyl)-4-fluorophenyl)-1-methylurea], the EC50 came out at 2620 nM. Still for that read-out and setting: for `CN(C(=O)Nc1ccc(F)c(C(F)F)c1)C1COCc2nc(NCCO)c3cc(F)c(F)cc3c21` (single isomer, unassigned) [Compound 238, 1-(8,9-Difluoro-6-((2-hydroxyethyl)amino)-1,4-dihydro-2H-pyrano[3,4-c]isoquinolin-1-yl)-3-(3-(difluoromethyl)-4-fluorophenyl)-1-methylurea] the value was 20 nM; for `CN(C(=O)Nc1ccc(F)c(Cl)c1)C1CCCc2[nH]c(=O)c3cc(F)c(F)cc3c21` (stereo not drawn) [Compound 38, 3-(3-Chloro-4-fluorophenyl)-1-(8,9-difluoro-6-oxo-1,2,3,4,5,6-hexahydrophenanthridin-1-yl)-1-methylurea], 1000 nM; for `CC(C)(O)CN(C(=O)Nc1ccc(F)c(Cl)c1)C1COCc2[nH]c(=O)c3cc(F)ccc3c21` (single isomer, unassigned) [Compound 112, 3-(3-Chloro-4-fluorophenyl)-1-(8-fluoro-6-oxo-1,4,5,6-tetrahydro-2H-pyrano[3,4-c]isoquinolin-1-yl)-1-(2-hydroxy-2-methylpropyl)urea], 1900 nM. Same read-out and setting: for `CC(=O)N1Cc2[nH]c(=O)c3cc(F)c(F)cc3c2C(N(C)C(=O)Nc2ccc(F)c(Cl)c2)C1` (single isomer, unassigned) [Compound 160, 1-(3-Acetyl-8,9-difluoro-6-oxo-1,2,3,4,5,6-hexahydrobenzo[c][1,7]naphthyridin-1-yl)-3-(3-chloro-4-fluorophenyl)-1-methylurea] the value was 820 nM. On the same count and under the same terms, for `CNc1nc2c(c3cc(F)c(F)cc13)C(N(C)C(=O)Nc1ccc(F)c(Cl)c1)COC2` (single isomer, unassigned) [Compound 242, 3-(3-Chloro-4-fluorophenyl)-1-(8,9-difluoro-6-(methylamino)-1,4-dihydro-2H-pyrano[3,4-c]isoquinolin-1-yl)-1-methylurea] the value was 20 nM; for `CN(C(=O)Nc1ccc(F)c(C(F)F)c1)C1COCc2nc(NCCN)c3cc(F)c(F)cc3c21` (single isomer, unassigned) [Compound 248, 1-(6-((2-Aminoethyl)amino)-8,9-difluoro-1,4-dihydro-2H-pyrano[3,4-c]isoquinolin-1-yl)-3-(3-(difluoromethyl)-4-fluorophenyl)-1-methylurea], 3200 nM; for `CN(C(=O)Nc1ccc(F)c(C#N)c1)C1C[S+]([O-])Cc2[nH]c(=O)c3cc(F)ccc3c21` (single isomer, unassigned) [Compound 201, 3-(3-Cyano-4-fluorophenyl)-1-(8-fluoro-3-oxido-6-oxo-1,4,5,6-tetrahydro-2H-thiopyrano[3,4-c]isoquinolin-1-yl)-1-methylurea], 3600 nM. Take `CN(C(=O)Nc1ccc(F)c(Cl)c1)C1CNCc2[nH]c(=O)c3cc(F)ccc3c21` (single isomer, unassigned) [Compound 153, 3-(3-Chloro-4-fluorophenyl)-1-(8-fluoro-6-oxo-1,2,3,4,5,6-hexahydrobenzo[c][1,7]naphthyridin-1-yl)-1-methylurea]: the EC50 amounted to 730 nM. For the compound `CN(C(=O)Nc1ccc(F)cc1)C1COCc2[nH]c(=O)c3cc(F)c(F)cc3c21` (single isomer, unassigned) [Compound 103, 1-(8,9-Difluoro-6-oxo-1,4,5,6-tetrahydro-2H-pyrano[3,4-c]isoquinolin-1-yl)-3-(4-fluorophenyl)-1-methylurea], the EC50 came out at 5300 nM. For `CN(C(=O)Nc1ccc(F)c(Cl)c1)C1CS(=O)(=O)Cc2[nH]c(=O)c3cc(F)c(F)cc3c21` (single isomer, unassigned) [Compound 204, 3-(3-Chloro-4-fluorophenyl)-1-(8,9-difluoro-3,3-dioxido-6-oxo-1,4,5,6-tetrahydro-2H-thiopyrano[3,4-c]isoquinolin-1-yl)-1-methylurea], the EC50 came to 1400 nM.

As to `CN(C(=O)Nc1ccc(F)c(Cl)c1)C1CN(CCO)Cc2[nH]c(=O)c3cc(F)ccc3c21` (single isomer, unassigned) [Compound 170, 3-(3-Chloro-4-fluorophenyl)-1-(8-fluoro-3-(2-hydroxyethyl)-6-oxo-1,2,3,4,5,6-hexahydrobenzo[c][1,7]naphthyridin-1-yl)-1-methylurea], the EC50 was 3100 nM. The same measure, in the same setting: for `CN(C(=O)Nc1ccc(F)c(C#N)c1)C1CNCc2[nH]c(=O)c3cc(F)c(F)cc3c21` (single isomer, unassigned) [Compound 176, 3-(3-Cyano-4-fluorophenyl)-1-(8,9-difluoro-6-oxo-1,2,3,4,5,6-hexahydrobenzo[c][1,7]naphthyridin-1-yl)-1-methylurea] the value was 50 nM.
